Measured values taken from patent US6972319B1, “Pituitary adenylate cyclase activating peptide (PACAP)receptor 3 (R3) agonists and their pharmacological methods of use” (priority 1999, dated 2005).
Substitutions are numbered along the chain they refer to. No end group written: not given here.

T1: PACAP-R3 (Homo sapiens, UniProt P41587)
T1 sequence (P41587 24-438): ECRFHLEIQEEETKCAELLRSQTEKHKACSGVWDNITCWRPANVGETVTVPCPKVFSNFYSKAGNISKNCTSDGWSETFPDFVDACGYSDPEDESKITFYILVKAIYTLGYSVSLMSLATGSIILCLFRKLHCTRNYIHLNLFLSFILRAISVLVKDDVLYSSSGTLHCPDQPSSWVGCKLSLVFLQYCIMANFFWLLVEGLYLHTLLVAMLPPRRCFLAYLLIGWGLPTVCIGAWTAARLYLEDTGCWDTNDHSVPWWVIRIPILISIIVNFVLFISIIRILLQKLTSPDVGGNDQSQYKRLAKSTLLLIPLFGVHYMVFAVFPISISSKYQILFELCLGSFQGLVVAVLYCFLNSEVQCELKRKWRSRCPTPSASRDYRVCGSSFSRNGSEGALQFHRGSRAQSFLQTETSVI

T2: PACAP-R2 (Homo sapiens, UniProt P32241)
T2 construct: expressed in transfected cells; host or cells: CHO cells
T2 sequence (P32241 31-457): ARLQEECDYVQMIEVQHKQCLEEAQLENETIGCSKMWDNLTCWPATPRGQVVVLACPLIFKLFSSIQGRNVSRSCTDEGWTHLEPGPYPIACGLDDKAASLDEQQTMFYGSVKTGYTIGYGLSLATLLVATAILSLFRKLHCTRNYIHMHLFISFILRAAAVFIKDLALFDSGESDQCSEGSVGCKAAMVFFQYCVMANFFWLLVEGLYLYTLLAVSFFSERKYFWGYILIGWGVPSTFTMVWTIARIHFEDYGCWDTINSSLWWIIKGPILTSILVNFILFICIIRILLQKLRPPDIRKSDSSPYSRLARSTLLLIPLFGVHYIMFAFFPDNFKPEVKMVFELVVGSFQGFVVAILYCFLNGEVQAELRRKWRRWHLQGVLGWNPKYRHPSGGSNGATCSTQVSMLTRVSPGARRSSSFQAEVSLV

T3: PACAP-R3 (human, UniProt P41587 24-438)
T3 sequence (looked up): T1 sequence (P41587 24-438)

B1: R3P172 (peptide)
peptide: HSDAVFTDNYTRLRKQVAAKKYLQSIKNKRYSWCEPGWCR
B2: PAC9 (peptide)
peptide: HSDGIFTDKYSRYRKQMAVKKYLAAVL-NH2
B3: R3P168 (peptide)
peptide: HSDAVFTDNYTRLRKQMAAKKYLNSIKNKT
B4: R3P167 (peptide)
peptide: B3 peptide with T30S
B5: R3P171 (peptide)
peptide: B3 peptide with T30Y
B6: R3P169 (peptide)
peptide: B3 peptide with T30V
B7: R3P173 (peptide)
peptide: HSDAVFTDDYTRLRKEVAAKKYLESIKDKRY
B8: PAC10 (peptide)
peptide: HSDGIFTDSKSRYRKQMAVKKYLAAVL-NH2
B9: PAC2 (peptide)
peptide: HKDGIFTDSYSRYRKQMAVKKYLAAVL-NH2
B10: PAC8 (peptide)
peptide: HSDGIFTKSYSRYRKQMAVKKYLAAVL-NH2
B11: PAC11 (peptide)
peptide: HSDGIFTDSYKRYRKQMAVKKYLAAVL-NH2
B12: R3P165 (peptide)
peptide: B3 peptide with T30P
B13: PAC4 (peptide)
peptide: HSDKIFTDSYSRYRKQMAVKKYLAAVL-NH2
B14: PAC1 (peptide)
peptide: ESDGIFTDSYSRYRKQMAVKKYLAAVL-NH2

How the values were obtained:
PACAP-R3 [1] = target: T1, PACAP-R3; assay: Cyclic AMP SPA on CHO cells expressing PACAP R3; assay type: cell-based; set-up: expressed in transfected cells; host or cells: CHO cells (Geneticin selection); details: for EC50: cAMP SPA, CHO cells transfected with PACAP-R3, concentration at which 50% of maximum PACAP27 activity is achieved, NA = no detectable activities, read-out: R3 EC50; for R3 Selectivity: ratio of EC50 at R2 versus EC50 at R3
Summary of the method: (§1)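 Receptor-transfected CHO cells are stimulated with peptide for 15 min at 37 C in the presence of phosphodiesterase inhibitor IBMX (100 uM), bacitracin and soybean trypsin inhibitor; cAMP is then read by scintillation proximity.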

PACAP-R2 = target: T2, PACAP-R2; assay: Cyclic AMP SPA on CHO cells transfected with PACAP-R2; assay type: cell-based; details: cAMP SPA, concentration at which 50% of maximum PACAP27 activity is achieved, NA = no detectable activities, read-out: R2 EC50
Summary of the method: as §1

PACAP-R3 [2] = target: T3, PACAP-R3; assay: cell-based or functional assay

Molecule | EC50 (PACAP-R3 [1]) [nM] | R3 Selectivity (PACAP-R3 [1]) | EC50 (PACAP-R2) [nM] | R3 EC50, nM (cAMP SPA) (PACAP-R3 [2]) [nM] | R3 Selectivity (PACAP-R3 [2]) [ratio]
HSDGIFTDSYSRYRKQMAVKKKLAAVL-NH2 [PAC22] | 15 | 0.1 | 2 |  | 
HSDGIFTDKYSRYRKQMAVKKYLAAVL-NH2 [PAC9] | 0.7 | 1 | 0.9 |  | 
HSDAVFTDNYTRLRKQMAAKKYLNSILK [Peptide R3P50] | 0.13 | 6 | 0.7 |  | 
HSDKIFTDSYSRYRKQMAVKKYLAAVL-NH2 [PAC4] | 7 | 6 | 45 |  | 
H-HSDGIFTDSYSRYRKQMAKKKYLAAVL-NH2 [PAC19] | 0.4 | 20 | 8 |  | 
HSDAVFTDNYTRLRKQMAAKKYLNSIKNKE [Peptide R3P156] | 1 | 100 | 100 |  | 
HSDAVFTDNYTRLRKQVAAKKYLQSILNKR [Peptide R3P93] | 0.14 | 40 | 6 |  | 
H-HSDAVFTDNYTRLRKQMAAKHYLNSIKNKRY [Peptide R3P74] | 0.6 | 150 | 90 |  | 
HSDAVFTDNYTRLRKQVAVKKYLQSILKKRY [Peptide R3P87] | 0.2 | 3 | 0.6 |  | 
HSDAVFTDNYTRLRKQMAAKKYLNSIKNER [Peptide R3P137] | 0.3 | 100 | 30 |  | 
HSDAVFTDNYTRLRKQMAVKKYLNSIKK [Peptide R3P41] | 0.08 | 100 | 8 |  | 
HSDAVFTDNYTRLRKQMAAKKYLNSIKNPR [Peptide R3P145] | 0.5 | 100 | 50 |  | 
HSDAVFTDNYTRLRKQMAAKKYLNSIKNKN [Peptide R3P164] | 0.3 | 300 | 100 |  | 
HSDAVFTDNYTRLRKQMAAKKYLNSIQNRI [rR3P184] | 0.37 | 30 | 10 |  | 
HSDAVFTDNYTRLRKQLAAKKYLNSIKNGGT [Peptide R3P30] | 0.4 | 50 | 20 |  | 
HSDAVFTDNYTRLRKQMARKKYLNSIQNRI [rR3P187] | 1.6 | >80 | > 130 |  | 
HSDAVFTDNYTRLRKQMAHKKYLNSIKNKR [Peptide R3P102] | 60 | 5 | 300 |  | 
HSDGIFTDSYSRYRKQMAVKKYLAKVL-NH2 [PAC25] | 0.04 | 3 | 0.13 |  | 
ESDGIFTDSYSRYRKQMAVKKYLAAVL-NH2 [PAC1] | 10 | 97 | 970 |  | 
HSDAVFTDNYTRLRKQMAAKKYLNSIVNKR [Peptide R3P131] | 0.3 | 70 | 20 |  | 
H-HSDAVFTDNYTRLRKQMAKKKYLNSIKNKR [Peptide R3P104] | 0.2 | 500 | 100 |  | 

Molecule | EC50 (PACAP-R3 [1]) [nM] | R3 Selectivity (PACAP-R3 [1]) | EC50 (PACAP-R2) [nM] | R3 EC50, nM (cAMP SPA) (PACAP-R3 [2]) [nM] | R3 Selectivity (PACAP-R3 [2]) [ratio]
HSDAVFTDNYTRLRKQMAGKKYLNSIKNKR [Peptide R3P101] | 1 | 400 | 400 |  | 
HSDAVFTDNYTRLRKQMASKKYLNSIKNRI [rR3P178] | 0.75 | 110 | 80 |  | 
HSDAVFTDNYTRLRKQMARKKYLNSIKNRI [rR3P177] | 1.6 | 70 | 110 |  | 
H-HSDAVFTDNYTRLRKQMAAKKYLNSIKNKH [Peptide R3P159] | 0.5 | 400 | 200 |  | 
HSDAVFTDNYTRLRKQMAAKKYLNSIHNKR [Peptide R3P122] | 0.2 | 50 | 10 |  | 
HSDAVFTDNYTRLRKQVAVKKYLQSILKKR [Peptide R3P88] | 0.08 | 12 | 0.89 |  | 
HSDAVFTDNYTRLRKQMAIKKYLNSIKNKR [Peptide R3P103] | 0.05 | 8 | 0.4 |  | 
B1 |  |  |  | 2.6 | 29
B2 |  |  |  | 0.7 | 1
B3 |  |  |  | 0.2 | 300
B4 |  |  |  | 1 | 
B5 |  |  |  | 0.4 | 
B6 |  |  |  | 0.2 | 300
B7 |  |  |  | 200 | 
B8 |  |  |  | 27 | 4
B9 |  |  |  | 34 | 
B10 |  |  |  | 47 | 1
B11 |  |  |  | 140 | 0.1
B12 |  |  |  | 0.5 | 300
B13 |  |  |  | 7 | 6
B14 |  |  |  | 10 | 97
